Source: PubChem BioAssay (NCI)
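Step 1: Grow cells in 96-well plates. Step 2: Expose to compound for 48 hours at 5 concentrations. Step 3: Interpolate endpoints linearly; if unreached, use highest concentration. The concentration for full growth arrest is given as TGI.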

What follows are compounds tested on T-47D breast (assay: inhibition of tumour cell growth, NCI panel, 48 h).
[N-]=[N+]=NCc1nc(N)c2c3c(sc2n1)CCCC3 was tested, and the TGI was 63.3 µM. For CCOC(=O)C(CCN1CCC2(CC1)C(=O)N(C)CN2c1ccccc1)C(=O)OCC, the TGI was > 100 µM. With Cc1cc(/N=C/c2ccc(F)cc2)n(-c2ccccc2)n1 the TGI was > 100 µM. In the case of COC1=C(Br)[C@H](O)[C@@]2(C=C1Br)CC(C(=O)NCCCOc1c(Br)cc(C(O)CNC(C)=O)cc1Br)=NO2 (stereo not given in full), the TGI is reported as > 10 µM. COc1ccc(C[C@H]2COC(=O)[C@@H]2Cc2cccc(Br)c2)cc1OC was tested, and the TGI was > 100 µM. In the case of CCOC(=O)/C=C(/C(=O)OCC)n1cnc2c(=O)[nH]c(NC(C)=O)nc21, the TGI is reported as > 100 µM. Compound COc1cccc(C2c3cc4c(cc3OC(C)(N3CCCC3)C2C)OCO4)c1 (stereo not given) has a TGI of 64 µM. O=C1NC(N/N=C\C(O)C(O)C(O)C(O)CO)=N/C1=C/c1ccc(Cl)cc1 (stereo not given) was tested, and the TGI was > 100 µM. With CC(Oc1ccc(Cl)cc1Cl)C(=O)NN1C(=O)CSC1c1ccccc1 (stereo not given) the TGI was > 100 µM. In the case of CCOC(=O)/C=C(\C(=O)OCC)n1ccc(=O)n(Cc2cn(CCCCOC(C)=O)nn2)c1=O, the TGI is reported as > 41 µM. For CC1=C(/C=C/C(C)=C/C=C/C(C)=C/C(=O)OC2CC(n3cc(F)c(=O)[nH]c3=O)OC2CO)C(C)(C)CCC1 (stereo not given), the TGI was 21.2 µM. For Cc1cc(C(F)(F)F)cc(-n2nc(NS(=O)(=O)c3cc(C)c(Cl)cc3S)nc2N)n1, the TGI was > 100 µM. CC1CN=C(N(C(=O)Nc2ccccc2)c2ccc(Cl)c(Cl)c2)S1 (stereo not given) was tested, and the TGI was > 100 µM. CC(C)(C)[Si](C)(C)Oc1ccc(C2CNC(=O)C23CCC(=O)N3Cc2ccccc2)cc1 (stereo not given) showed a TGI of 63 µM.

What follows are compounds tested on CCRF-CEM leukemia (assay: inhibition of tumour cell growth, NCI panel, 48 h).
[N-]=[N+]=NCc1nc(N)c2c3c(sc2n1)CCCC3 was tested, and the TGI was > 100 µM. For CCOC(=O)C(CCN1CCC2(CC1)C(=O)N(C)CN2c1ccccc1)C(=O)OCC, the TGI was > 100 µM. In the case of Cc1cc(/N=C/c2ccc(F)cc2)n(-c2ccccc2)n1, the TGI is reported as > 100 µM. For COC1=C(Br)[C@H](O)[C@@]2(C=C1Br)CC(C(=O)NCCCOc1c(Br)cc(C(O)CNC(C)=O)cc1Br)=NO2 (stereo not given in full), the TGI was > 10 µM. COc1ccc(C[C@H]2COC(=O)[C@@H]2Cc2cccc(Br)c2)cc1OC was tested, and the TGI was 39.2 µM. With CCOC(=O)/C=C(/C(=O)OCC)n1cnc2c(=O)[nH]c(NC(C)=O)nc21 the TGI was > 100 µM. With COc1cccc(C2c3cc4c(cc3OC(C)(N3CCCC3)C2C)OCO4)c1 (stereo not given) the TGI was > 100 µM. For O=C1NC(N/N=C\C(O)C(O)C(O)C(O)CO)=N/C1=C/c1ccc(Cl)cc1 (stereo not given), the TGI was > 100 µM. For CC(Oc1ccc(Cl)cc1Cl)C(=O)NN1C(=O)CSC1c1ccccc1 (stereo not given), the TGI was > 100 µM. For CCOC(=O)/C=C(\C(=O)OCC)n1ccc(=O)n(Cc2cn(CCCCOC(C)=O)nn2)c1=O, the TGI was 4.59 µM. With CC1=C(/C=C/C(C)=C/C=C/C(C)=C/C(=O)OC2CC(n3cc(F)c(=O)[nH]c3=O)OC2CO)C(C)(C)CCC1 (stereo not given) the TGI was 31.8 µM. In the case of Cc1cc(C(F)(F)F)cc(-n2nc(NS(=O)(=O)c3cc(C)c(Cl)cc3S)nc2N)n1, the TGI is reported as 54.1 µM. For CC1CN=C(N(C(=O)Nc2ccccc2)c2ccc(Cl)c(Cl)c2)S1 (stereo not given), the TGI was > 10 µM. In the case of CC(C)(C)[Si](C)(C)Oc1ccc(C2CNC(=O)C23CCC(=O)N3Cc2ccccc2)cc1 (stereo not given), the TGI is reported as > 100 µM.

What follows are compounds tested on SF-295 CNS (assay: inhibition of tumour cell growth, NCI panel, 48 h).
Compound [N-]=[N+]=NCc1nc(N)c2c3c(sc2n1)CCCC3 has a TGI of 27.9 µM. In the case of CCOC(=O)C(CCN1CCC2(CC1)C(=O)N(C)CN2c1ccccc1)C(=O)OCC, the TGI is reported as > 100 µM. Cc1cc(/N=C/c2ccc(F)cc2)n(-c2ccccc2)n1 was tested, and the TGI was > 100 µM. With COC1=C(Br)[C@H](O)[C@@]2(C=C1Br)CC(C(=O)NCCCOc1c(Br)cc(C(O)CNC(C)=O)cc1Br)=NO2 (stereo not given in full) the TGI was > 10 µM. In the case of COc1ccc(C[C@H]2COC(=O)[C@@H]2Cc2cccc(Br)c2)cc1OC, the TGI is reported as > 100 µM. For CCOC(=O)/C=C(/C(=O)OCC)n1cnc2c(=O)[nH]c(NC(C)=O)nc21, the TGI was > 100 µM. For COc1cccc(C2c3cc4c(cc3OC(C)(N3CCCC3)C2C)OCO4)c1 (stereo not given), the TGI was 73.9 µM. With O=C1NC(N/N=C\C(O)C(O)C(O)C(O)CO)=N/C1=C/c1ccc(Cl)cc1 (stereo not given) the TGI was > 100 µM. With CC(Oc1ccc(Cl)cc1Cl)C(=O)NN1C(=O)CSC1c1ccccc1 (stereo not given) the TGI was > 100 µM. CCOC(=O)/C=C(\C(=O)OCC)n1ccc(=O)n(Cc2cn(CCCCOC(C)=O)nn2)c1=O was tested, and the TGI was > 62.1 µM. With CC1=C(/C=C/C(C)=C/C=C/C(C)=C/C(=O)OC2CC(n3cc(F)c(=O)[nH]c3=O)OC2CO)C(C)(C)CCC1 (stereo not given) the TGI was 14.3 µM. With Cc1cc(C(F)(F)F)cc(-n2nc(NS(=O)(=O)c3cc(C)c(Cl)cc3S)nc2N)n1 the TGI was > 100 µM. In the case of CC1CN=C(N(C(=O)Nc2ccccc2)c2ccc(Cl)c(Cl)c2)S1 (stereo not given), the TGI is reported as > 100 µM. For CC(C)(C)[Si](C)(C)Oc1ccc(C2CNC(=O)C23CCC(=O)N3Cc2ccccc2)cc1 (stereo not given), the TGI was 30.6 µM.

Each compound was assayed on OVCAR-3 ovarian (assay: inhibition of tumour cell growth, NCI panel, 48 h).
[N-]=[N+]=NCc1nc(N)c2c3c(sc2n1)CCCC3 gave a TGI of 11.8 µM. CCOC(=O)C(CCN1CCC2(CC1)C(=O)N(C)CN2c1ccccc1)C(=O)OCC was tested, and the TGI was > 100 µM. In the case of Cc1cc(/N=C/c2ccc(F)cc2)n(-c2ccccc2)n1, the TGI is reported as > 100 µM. For COC1=C(Br)[C@H](O)[C@@]2(C=C1Br)CC(C(=O)NCCCOc1c(Br)cc(C(O)CNC(C)=O)cc1Br)=NO2 (stereo not given in full), the TGI was > 10 µM. COc1ccc(C[C@H]2COC(=O)[C@@H]2Cc2cccc(Br)c2)cc1OC showed a TGI of 60.4 µM. CCOC(=O)/C=C(/C(=O)OCC)n1cnc2c(=O)[nH]c(NC(C)=O)nc21 was tested, and the TGI was > 100 µM. COc1cccc(C2c3cc4c(cc3OC(C)(N3CCCC3)C2C)OCO4)c1 (stereo not given) showed a TGI of 22 µM. In the case of O=C1NC(N/N=C\C(O)C(O)C(O)C(O)CO)=N/C1=C/c1ccc(Cl)cc1 (stereo not given), the TGI is reported as > 100 µM. CC(Oc1ccc(Cl)cc1Cl)C(=O)NN1C(=O)CSC1c1ccccc1 (stereo not given) was tested, and the TGI was > 100 µM. In the case of CCOC(=O)/C=C(\C(=O)OCC)n1ccc(=O)n(Cc2cn(CCCCOC(C)=O)nn2)c1=O, the TGI is reported as 29.2 µM. CC1=C(/C=C/C(C)=C/C=C/C(C)=C/C(=O)OC2CC(n3cc(F)c(=O)[nH]c3=O)OC2CO)C(C)(C)CCC1 (stereo not given) showed a TGI of 22.5 µM. In the case of Cc1cc(C(F)(F)F)cc(-n2nc(NS(=O)(=O)c3cc(C)c(Cl)cc3S)nc2N)n1, the TGI is reported as > 100 µM. For CC1CN=C(N(C(=O)Nc2ccccc2)c2ccc(Cl)c(Cl)c2)S1 (stereo not given), the TGI was > 10 µM. CC(C)(C)[Si](C)(C)Oc1ccc(C2CNC(=O)C23CCC(=O)N3Cc2ccccc2)cc1 (stereo not given) gave a TGI of 33 µM.

What follows are compounds tested on HL-60(TB) leukemia (assay: inhibition of tumour cell growth, NCI panel, 48 h).
With [N-]=[N+]=NCc1nc(N)c2c3c(sc2n1)CCCC3 the TGI was > 100 µM. CCOC(=O)C(CCN1CCC2(CC1)C(=O)N(C)CN2c1ccccc1)C(=O)OCC was tested, and the TGI was > 100 µM. For Cc1cc(/N=C/c2ccc(F)cc2)n(-c2ccccc2)n1, the TGI was > 100 µM. In the case of COC1=C(Br)[C@H](O)[C@@]2(C=C1Br)CC(C(=O)NCCCOc1c(Br)cc(C(O)CNC(C)=O)cc1Br)=NO2 (stereo not given in full), the TGI is reported as > 10 µM. COc1ccc(C[C@H]2COC(=O)[C@@H]2Cc2cccc(Br)c2)cc1OC gave a TGI of 38.6 µM. With CCOC(=O)/C=C(/C(=O)OCC)n1cnc2c(=O)[nH]c(NC(C)=O)nc21 the TGI was > 100 µM. In the case of COc1cccc(C2c3cc4c(cc3OC(C)(N3CCCC3)C2C)OCO4)c1 (stereo not given), the TGI is reported as > 100 µM. O=C1NC(N/N=C\C(O)C(O)C(O)C(O)CO)=N/C1=C/c1ccc(Cl)cc1 (stereo not given) was tested, and the TGI was > 100 µM. For CC(Oc1ccc(Cl)cc1Cl)C(=O)NN1C(=O)CSC1c1ccccc1 (stereo not given), the TGI was 77.9 µM. With CCOC(=O)/C=C(\C(=O)OCC)n1ccc(=O)n(Cc2cn(CCCCOC(C)=O)nn2)c1=O the TGI was 1.25 µM. For CC1=C(/C=C/C(C)=C/C=C/C(C)=C/C(=O)OC2CC(n3cc(F)c(=O)[nH]c3=O)OC2CO)C(C)(C)CCC1 (stereo not given), the TGI was 7.37 µM. For Cc1cc(C(F)(F)F)cc(-n2nc(NS(=O)(=O)c3cc(C)c(Cl)cc3S)nc2N)n1, the TGI was 77.8 µM. For CC1CN=C(N(C(=O)Nc2ccccc2)c2ccc(Cl)c(Cl)c2)S1 (stereo not given), the TGI was > 100 µM. Work on CC(C)(C)[Si](C)(C)Oc1ccc(C2CNC(=O)C23CCC(=O)N3Cc2ccccc2)cc1 (stereo not given) yielded a TGI of 49.2 µM.
